The text below walks through data of patent publication US20210299098A1, “SELECTIVE ESTROGEN RECEPTOR MODULATOR FOR TREATMENT OF PANCREATIC CANCER” (CIPLA LIMITED, priority 2020, published 2021).

The conditions of data set [1]: used as oral contraceptive; cited from earlier work.
The subject of data set [2] is SW1990 pancreatic cancer cell line. As to the kind of experiment: CellTiter-Blue cell viability assay, SW1990. In kind it is cell-based. Particulars: Homo sapiens, 96 hours treatment. The procedure: (§1) The in vitro anti-tumor activity of levormeloxifene or its pharmaceutically acceptable salt was evaluated in six human pancreatic cancer cell lines: AsPc 1 (A), BxPC3 (B), Miapaca2 (C), Panc 10.05 (D), SW1990 (E) and Panc 1 (F). AsPc 1 (A), BxPC3 (B), Miapaca2 (C), Panc 10.05 (D), SW1990 (E) and Panc 1 (F) were established at Oncotest from the corresponding human patient derived xenograft. CAPAN-2, HUP-T3 and PA-TU-8902 were purchased from DSMZ (Braunschweig, Germany). PANC-1 was purchased from CLS Cell Line Services GmbH (Eppelheim, Germany). BxPC-3, HPAC and MIA-Pa-Ca-2 were purchased from ATCC (Rockville, Md., USA). Authenticity of cell lines was confirmed at the DSMZ by STR (short tandem repeat) analysis, a PCR based DNA-fingerprinting methodology. Cell lines were routinely passaged once or twice weekly and maintained in culture for up to 20 passages. […] Briefly, cells were harvested from exponential phase cultures, counted and plated in 96-well flat-bottom microtiter plates at a cell density of 6,000-20,000 cells/well depending on the cell line's growth rate. […] Following an incubation period of up to four hours, fluorescence (FU) was measured by using the Enspire Multimode Plate Reader (excitation λ=531 nm, emission λ=615 nm). […]

Data set [3] relates to Miapaca2 pancreatic cancer cell line. Briefly: CellTiter-Blue cell viability assay, Miapaca2. In kind it is cell-based. Particulars: Homo sapiens, MIA PaCa-2; Miapaca1 cell line as printed; 96 hours treatment. On the procedure: as §1
The subject of data set [4] is estrogen receptor. The following applies: according to literature; cited from earlier work.
Data set [5] has as its system human pancreatic cancer cell lines. As to the kind of experiment: CellTiter-Blue cell viability assay, panel of pancreatic cancer cell lines. In kind it is cell-based. The procedure: The in vitro anti-tumor activity of levormeloxifene or its pharmaceutically acceptable salt was evaluated in six human pancreatic cancer cell lines: AsPc 1 (A), BxPC3 (B), Miapaca2 (C), Panc 10.05 (D), SW1990 (E) and Panc 1 (F).
AsPc 1 (A), BxPC3 (B), Miapaca2 (C), Panc 10.05 (D), SW1990 (E) and Panc 1 (F) were established at Oncotest from the corresponding human patient derived xenograft. CAPAN-2, HUP-T3 and PA-TU-8902 were purchased from DSMZ (Braunschweig, Germany). PANC-1 was purchased from CLS Cell Line Services GmbH (Eppelheim, Germany). BxPC-3, HPAC and MIA-Pa-Ca-2 were purchased from ATCC (Rockville, Md., USA). Authenticity of cell lines was confirmed at the DSMZ by STR (short tandem repeat) analysis, a PCR based DNA-fingerprinting methodology. Cell lines were routinely passaged once or twice weekly and maintained in culture for up to 20 passages. […]
The CellTiter-Blue® Cell Viability Assay (#G8081, Promega) was used according to manufacturer's instructions. Briefly, cells were harvested from exponential phase cultures, counted and plated in 96-well flat-bottom microtiter plates at a cell density of 6,000-20,000 cells/well depending on the cell line's growth rate. […] Following an incubation period of up to four hours, fluorescence (FU) was measured by using the Enspire Multimode Plate Reader (excitation λ=531 nm, emission λ=615 nm). […]

The subject of data set [6] is AsPc 1 pancreatic cancer cell line. Briefly: CellTiter-Blue cell viability assay, AsPC1. The following applies: Homo sapiens, 96 hours treatment. In kind it is cell-based. The procedure: as §1
Data set [7] relates to PA-TU-8902 cell line. As to the kind of experiment: CellTiter-Blue cell viability assay, PA-TU-8902. The following applies: Homo sapiens, PaTu 8902; PA-TU-8902, text value; read-out: individual IC50. In kind it is cell-based.
Source text: as §1, with “AsPc” for “The in vitro anti-tumor activity of levormeloxifene or its pharmaceutically acceptable salt was evaluated in six human pancreatic cancer cell lines: AsPc 1 (A), BxPC3 (B), Miapaca2 (C), Panc 10.05 (D), SW1990 (E) and Panc 1 (F). AsPc”, “passages. All cells were grown at 37° C. in a humidified atmosphere with 5% CO2 in RPMI 1640 medium (25 mM HEPES, with L-glutamine, #FG1385, Biochrom, Berlin, Germany) supplemented with 10% (v/v) fetal calf serum (Sigma, Taufkirchen, Germany) and 0.1 mg/mL gentamicin (Life Technologies, Karlsruhe, Germany).” for “passages.”

Data set [8] deals with Panc 10.05 pancreatic cancer cell line. Briefly: CellTiter-Blue cell viability assay, Panc10.05. In kind it is cell-based. The following applies: Homo sapiens, Panc1005; Panc10.05 cell line; 96 hours treatment. The procedure: as §1
The subject of data set [9] is BxPC3 pancreatic cancer cell line. As to the kind of experiment: CellTiter-Blue cell viability assay, BxPC3. The following applies: Homo sapiens, BXPC-3, 96 hours treatment. In kind it is cell-based. On the procedure: as §1
Data set [10] relates to HPAC cell line. As to the kind of experiment: CellTiter-Blue cell viability assay, HPAC. In kind it is cell-based. The following applies: Homo sapiens, most resistant cell line, read-out: individual IC50.
Source text: as §1, with “AsPc” for “The in vitro anti-tumor activity of levormeloxifene or its pharmaceutically acceptable salt was evaluated in six human pancreatic cancer cell lines: AsPc 1 (A), BxPC3 (B), Miapaca2 (C), Panc 10.05 (D), SW1990 (E) and Panc 1 (F). AsPc”, “passages. All cells were grown at 37° C. in a humidified atmosphere with 5% CO2 in RPMI 1640 medium (25 mM HEPES, with L-glutamine, #FG1385, Biochrom, Berlin, Germany) supplemented with 10% (v/v) fetal calf serum (Sigma, Taufkirchen, Germany) and 0.1 mg/mL gentamicin (Life Technologies, Karlsruhe, Germany).” for “passages.”

Data set [11] has as its system Panc 1 pancreatic cancer cell line. As to the kind of experiment: CellTiter-Blue cell viability assay, Panc1. In kind it is cell-based. Particulars: Homo sapiens, 96 hours treatment. The procedure:
as §1

For `COc1ccc2c(c1)OC(C)(C)C(c1ccccc1)C2c1ccc(OCCN2CCCC2)cc1` (stereo not drawn) [Centchroman, ormeloxifene], the half-life result in data set [1] is listed as “about 168 hours”.

`COc1ccc2c(c1)OC(C)(C)[C@@H](c1ccccc1)[C@@H]2c1ccc(OCCN2CCCC2)cc1` [levormeloxifene, (−)-3,4-trans-7-methoxy-2,2-dimethyl-3-phenyl-4-[4-[2-(pyrrolidin-1-yl)ethoxy]phenyl]chromane]: the IC50 in data set [2] is 27 µM; in [3] it was 22 µM; in data set [6], 18 µM; in [7], 1030 µM; in data set [8] it was 24 µM; in [9] it was 21 µM. In addition, the IC50 in [10] turned out to be 5350 µM; in data set [11], 24 µM. Besides, the “receptor affinity relative to the D-isomer” value in data set [4] was “about 7 times”. Further, the “difference between the most sensitive and most resistant cell line” value in data set [5] (HUP-T3 vs HPAC IC50) is given as 7.4 fold. Moreover, the “activity in all cell lines tested (concentration-effect curves)” value in data set [5] (sigmoidal concentration-effect curves) is “concentration-dependent activity”.
